Experimental findings from BindingDB's records for doi:10.1124/jpet.301.1.37 (National Institutes of Health, 2002) are described below.

By Ki is commonly meant the equilibrium dissociation constant of an inhibitor or competing ligand from its target. A lower Ki goes with higher affinity.

Test [1] concerns the target T1, VIP peptides (Homo sapiens, UniProt P01282).
T1 sequence (P01282 whole entry): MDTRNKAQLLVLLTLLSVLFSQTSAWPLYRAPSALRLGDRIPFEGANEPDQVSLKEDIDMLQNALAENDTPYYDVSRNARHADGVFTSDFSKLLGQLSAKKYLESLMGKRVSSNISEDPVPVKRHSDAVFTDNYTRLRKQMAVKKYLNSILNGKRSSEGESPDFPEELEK

The target in test [2] is T2, VIP peptides (Cavia porcellus, UniProt P04566).
T2 sequence (P04566 whole entry): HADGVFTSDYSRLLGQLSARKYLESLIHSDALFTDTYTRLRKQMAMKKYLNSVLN

Test [3] has as its target T3, VIP peptides (Rattus norvegicus, UniProt P01283).
T3 sequence (P01283 whole entry): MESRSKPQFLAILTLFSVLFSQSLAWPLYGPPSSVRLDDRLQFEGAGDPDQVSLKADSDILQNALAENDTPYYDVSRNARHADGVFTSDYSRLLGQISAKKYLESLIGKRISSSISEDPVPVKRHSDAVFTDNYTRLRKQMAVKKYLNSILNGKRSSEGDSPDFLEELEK

“And” between values parts separate entries of the source, which are not always exact repeats. Equal entries are not always repeated.

For the molecule `CC[C@H](C)[C@H](NC(=O)[C@H](CO)NC(=O)[C@H](CC(N)=O)NC(=O)[C@H](CC(C)C)NC(=O)[C@H](Cc1ccc(O)cc1)NC(=O)[C@H](CCCCN)NC(=O)[C@H](CCCCN)NC(=O)[C@@H](NC(=O)[C@H](C)NC(=O)[C@H](CCSC)NC(=O)[C@H](CCC(N)=O)NC(=O)[C@H](CCCCN)NC(=O)[C@H](CCCN=C(N)N)NC(=O)[C@H](CC(C)C)NC(=O)[C@H](CCCN=C(N)N)NC(=O)[C@@H](NC(=O)[C@H](Cc1ccc(O)cc1)NC(=O)[C@H](CC(N)=O)NC(=O)[C@H](CC(=O)O)NC(=O)[C@H](C)NC(=O)[C@H](Cc1ccccc1)NC(=O)[C@@H](NC(=O)[C@H](C)NC(=O)[C@H](CC(=O)O)NC(=O)[C@H](CO)NC(=O)[C@@H](N)Cc1cnc[nH]1)C(C)C)[C@@H](C)O)C(C)C)C(=O)N[C@@H](CC(C)C)C(=O)N[C@@H](CC(N)=O)C(N)=O` [VIP Ala7], the Ki in test [1] was 0.0178 µM and 0.0513 µM and 0.0357 µM; in test [2], 0.0661 µM; in test [3], 0.0162 µM and 0.107 µM and 0.0537 µM.

Regarding `CC[C@H](C)[C@H](NC(=O)[C@H](CO)NC(=O)[C@H](CC(N)=O)NC(=O)[C@H](CC(C)C)NC(=O)[C@H](Cc1ccc(O)cc1)NC(=O)[C@H](CCCCN)NC(=O)[C@H](CCCCN)NC(=O)[C@@H](NC(=O)[C@H](C)NC(=O)[C@H](CCSC)NC(=O)[C@H](CCC(N)=O)NC(=O)[C@H](CCCCN)NC(=O)[C@H](CCCN=C(N)N)NC(=O)[C@H](CC(C)C)NC(=O)[C@H](CCCN=C(N)N)NC(=O)[C@@H](NC(=O)[C@H](Cc1ccc(O)cc1)NC(=O)[C@H](CC(N)=O)NC(=O)[C@H](CC(=O)O)NC(=O)[C@@H](NC(=O)[C@H](Cc1ccccc1)NC(=O)[C@@H](NC(=O)[C@@H](C)NC(=O)[C@H](CC(=O)O)NC(=O)[C@H](CO)NC(=O)[C@@H](N)Cc1cnc[nH]1)C(C)C)[C@@H](C)O)[C@@H](C)O)C(C)C)C(=O)N[C@@H](CC(C)C)C(=O)N[C@@H](CC(N)=O)C(N)=O` [VIP [D-Ala4]], the Ki in test [2] was 0.0162 µM; in test [3], 0.0011 µM and 0.0072 µM and 0.0105 µM.

As to `CC[C@H](C)[C@H](NC(=O)[C@H](CO)NC(=O)[C@H](CC(N)=O)NC(=O)[C@H](CC(C)C)NC(=O)[C@H](Cc1ccc(O)cc1)NC(=O)[C@H](CCCCN)NC(=O)[C@H](CCCCN)NC(=O)[C@@H](NC(=O)[C@H](C)NC(=O)[C@H](CCSC)NC(=O)[C@H](CCC(N)=O)NC(=O)[C@H](CCCCN)NC(=O)[C@H](CCCN=C(N)N)NC(=O)[C@H](CC(C)C)NC(=O)[C@@H](CCCN=C(N)N)NC(=O)[C@@H](NC(=O)[C@H](Cc1ccc(O)cc1)NC(=O)[C@H](CC(N)=O)NC(=O)[C@H](CC(=O)O)NC(=O)[C@@H](NC(=O)[C@H](Cc1ccccc1)NC(=O)[C@@H](NC(=O)[C@H](C)NC(=O)[C@H](CC(=O)O)NC(=O)[C@H](CO)NC(=O)[C@@H](N)Cc1cnc[nH]1)C(C)C)[C@@H](C)O)[C@@H](C)O)C(C)C)C(=O)N[C@@H](CC(C)C)C(=O)N[C@@H](CC(N)=O)C(N)=O` [VIP [D-Arg12]], the Ki in test [1] is 0.0022 µM and 0.0182 µM and 0.0144 µM; in test [2] it was 0.0169 µM; in test [3], 0.0028 µM and 0.0117 µM and 0.0191 µM.

Consider `CC[C@H](C)[C@H](NC(=O)[C@H](CO)NC(=O)[C@H](CC(N)=O)NC(=O)[C@H](CC(C)C)NC(=O)[C@H](Cc1ccc(O)cc1)NC(=O)[C@H](CCCCN)NC(=O)[C@H](CCCCN)NC(=O)[C@@H](NC(=O)[C@H](C)NC(=O)[C@H](CCSC)NC(=O)[C@H](CCC(N)=O)NC(=O)[C@H](CCCCN)NC(=O)[C@@H](CCCN=C(N)N)NC(=O)[C@H](CC(C)C)NC(=O)[C@H](CCCN=C(N)N)NC(=O)[C@@H](NC(=O)[C@H](Cc1ccc(O)cc1)NC(=O)[C@H](CC(N)=O)NC(=O)[C@H](CC(=O)O)NC(=O)[C@@H](NC(=O)[C@H](Cc1ccccc1)NC(=O)[C@@H](NC(=O)[C@H](C)NC(=O)[C@H](CC(=O)O)NC(=O)[C@H](CO)NC(=O)[C@@H](N)Cc1cnc[nH]1)C(C)C)[C@@H](C)O)[C@@H](C)O)C(C)C)C(=O)N[C@@H](CC(C)C)C(=O)N[C@@H](CC(N)=O)C(N)=O` [VIP [D-Arg14]], for which the Ki in test [1] was 0.0107 µM and 0.0316 µM and 0.0246 µM; in test [2] it was 0.0364 µM; in test [3] it was 0.0105 µM and 0.0224 µM and 0.0275 µM.

In the case of `CC[C@H](C)[C@H](NC(=O)[C@H](CO)NC(=O)[C@H](CC(N)=O)NC(=O)[C@H](CC(C)C)NC(=O)[C@H](Cc1ccc(O)cc1)NC(=O)[C@H](CCCCN)NC(=O)[C@H](CCCCN)NC(=O)[C@@H](NC(=O)[C@H](C)NC(=O)[C@H](CCSC)NC(=O)[C@H](CCC(N)=O)NC(=O)[C@H](CCCCN)NC(=O)[C@H](CCCN=C(N)N)NC(=O)[C@H](CC(C)C)NC(=O)[C@H](CCCN=C(N)N)NC(=O)[C@@H](NC(=O)[C@H](Cc1ccc(O)cc1)NC(=O)[C@H](CC(N)=O)NC(=O)[C@H](CC(=O)O)NC(=O)[C@@H](NC(=O)[C@H](Cc1ccccc1)NC(=O)[C@@H](NC(=O)[C@H](C)NC(=O)[C@H](CC(=O)O)NC(=O)[C@H](CO)NC(=O)[C@@H](N)Cc1cnc[nH]1)C(C)C)[C@@H](C)O)[C@@H](C)O)C(C)C)C(=O)N[C@@H](CC(C)C)C(=O)N[C@H](CC(N)=O)C(N)=O` [VIP [D-Asn28]], the Ki in test [2] is 0.0148 µM; in test [3] it was 0.0015 µM and 0.0063 µM and 0.0118 µM.

On to `CC[C@H](C)[C@H](NC(=O)[C@H](CO)NC(=O)[C@H](CC(N)=O)NC(=O)[C@H](CC(C)C)NC(=O)[C@H](Cc1ccc(O)cc1)NC(=O)[C@H](CCCCN)NC(=O)[C@H](CCCCN)NC(=O)[C@@H](NC(=O)[C@H](C)NC(=O)[C@H](CCSC)NC(=O)[C@H](CCC(N)=O)NC(=O)[C@H](CCCCN)NC(=O)[C@H](CCCN=C(N)N)NC(=O)[C@H](CC(C)C)NC(=O)[C@H](CCCN=C(N)N)NC(=O)[C@@H](NC(=O)[C@H](Cc1ccc(O)cc1)NC(=O)[C@H](CC(N)=O)NC(=O)[C@H](CC(=O)O)NC(=O)[C@@H](NC(=O)[C@H](Cc1ccccc1)NC(=O)[C@@H](NC(=O)[C@H](C)NC(=O)[C@@H](CC(=O)O)NC(=O)[C@H](CO)NC(=O)[C@@H](N)Cc1cnc[nH]1)C(C)C)[C@@H](C)O)[C@@H](C)O)C(C)C)C(=O)N[C@@H](CC(C)C)C(=O)N[C@@H](CC(N)=O)C(N)=O` [VIP [D-Asp3]], for which the Ki in test [2] was 0.0091 µM; in test [3], 0.00093 µM and 0.0054 µM and 0.0065 µM.

Consider `CC[C@H](C)[C@H](NC(=O)[C@H](CO)NC(=O)[C@H](CC(N)=O)NC(=O)[C@H](CC(C)C)NC(=O)[C@H](Cc1ccc(O)cc1)NC(=O)[C@H](CCCCN)NC(=O)[C@H](CCCCN)NC(=O)[C@@H](NC(=O)[C@H](C)NC(=O)[C@H](CCSC)NC(=O)[C@@H](CCC(N)=O)NC(=O)[C@H](CCCCN)NC(=O)[C@H](CCCN=C(N)N)NC(=O)[C@H](CC(C)C)NC(=O)[C@H](CCCN=C(N)N)NC(=O)[C@@H](NC(=O)[C@H](Cc1ccc(O)cc1)NC(=O)[C@H](CC(N)=O)NC(=O)[C@H](CC(=O)O)NC(=O)[C@@H](NC(=O)[C@H](Cc1ccccc1)NC(=O)[C@@H](NC(=O)[C@H](C)NC(=O)[C@H](CC(=O)O)NC(=O)[C@H](CO)NC(=O)[C@@H](N)Cc1cnc[nH]1)C(C)C)[C@@H](C)O)[C@@H](C)O)C(C)C)C(=O)N[C@@H](CC(C)C)C(=O)N[C@@H](CC(N)=O)C(N)=O` [VIP [D-Gln16]], for which the Ki in test [1] is 0.0011 µM and 0.0029 µM and 0.0035 µM; in test [2] it was 0.0115 µM; in test [3], 0.001 µM and 0.0056 µM and 0.0093 µM.

On to `CC[C@H](C)[C@H](NC(=O)[C@H](CO)NC(=O)[C@H](CC(N)=O)NC(=O)[C@H](CC(C)C)NC(=O)[C@H](Cc1ccc(O)cc1)NC(=O)[C@H](CCCCN)NC(=O)[C@H](CCCCN)NC(=O)[C@@H](NC(=O)[C@H](C)NC(=O)[C@H](CCSC)NC(=O)[C@H](CCC(N)=O)NC(=O)[C@H](CCCCN)NC(=O)[C@H](CCCN=C(N)N)NC(=O)[C@H](CC(C)C)NC(=O)[C@H](CCCN=C(N)N)NC(=O)[C@@H](NC(=O)[C@H](Cc1ccc(O)cc1)NC(=O)[C@H](CC(N)=O)NC(=O)[C@H](CC(=O)O)NC(=O)[C@@H](NC(=O)[C@@H](Cc1ccccc1)NC(=O)[C@@H](NC(=O)[C@H](C)NC(=O)[C@H](CC(=O)O)NC(=O)[C@H](CO)NC(=O)[C@@H](N)Cc1cnc[nH]1)C(C)C)[C@@H](C)O)[C@@H](C)O)C(C)C)C(=O)N[C@@H](CC(C)C)C(=O)N[C@@H](CC(N)=O)C(N)=O` [VIP [D-Phe6]], for which the Ki in test [1] is 0.288 µM and 0.198 µM and 0.115 µM; in test [2], 0.4 µM; in test [3] it was 0.269 µM and 0.692 µM and 0.912 µM.

Take `CC[C@H](C)[C@H](NC(=O)[C@H](CO)NC(=O)[C@H](CC(N)=O)NC(=O)[C@H](CC(C)C)NC(=O)[C@H](Cc1ccc(O)cc1)NC(=O)[C@H](CCCCN)NC(=O)[C@H](CCCCN)NC(=O)[C@@H](NC(=O)[C@H](C)NC(=O)[C@H](CCSC)NC(=O)[C@H](CCC(N)=O)NC(=O)[C@H](CCCCN)NC(=O)[C@H](CCCN=C(N)N)NC(=O)[C@H](CC(C)C)NC(=O)[C@H](CCCN=C(N)N)NC(=O)[C@@H](NC(=O)[C@H](Cc1ccc(O)cc1)NC(=O)[C@H](CC(N)=O)NC(=O)[C@H](CC(=O)O)NC(=O)[C@@H](NC(=O)[C@H](Cc1ccccc1)NC(=O)[C@@H](NC(=O)[C@H](C)NC(=O)[C@H](CC(=O)O)NC(=O)[C@@H](CO)NC(=O)[C@@H](N)Cc1cnc[nH]1)C(C)C)[C@@H](C)O)[C@@H](C)O)C(C)C)C(=O)N[C@@H](CC(C)C)C(=O)N[C@@H](CC(N)=O)C(N)=O` [VIP [D-Ser2]]: the Ki in test [1] was 0.0019 µM and 0.0182 µM and 0.0159 µM; in test [2], 0.0081 µM; in test [3] it was 0.0042 µM and 0.0151 µM and 0.0389 µM.

Take “H-HSDAVFTDNYARLRKQMAVKKYLNSILN-NH2 [VIP Ala11]”: the Ki in test [2] was 0.0024 µM; in test [3] it was 0.00034 µM and 0.0019 µM and 0.00042 µM.

On to “H-HSDAVFTDNYTRLRKAMAVKKYLNSILN-NH2 [VIP Ala16]”, for which the Ki in test [2] was 0.0051 µM; in test [3] it was 0.00093 µM and 0.0021 µM and 0.0011 µM.

As for “H-HSDAVFTDNYTRLRKQMAVAKYLNSILN-NH2 [VIP Ala20]”, the Ki is 0.0055 µM in test [2]; 0.0017 µM and 0.0035 µM and 0.0033 µM in test [3].
